Like-named read-outs stand apart in the source and are kept apart here.
Legend:
AHR [1] = biological target: T1, AHR (Homo sapiens, UniProt P35869); assay: In vitro assay 1: antagonism in human cell line (AHR transactivation, firefly luciferase reporter, kynurenic acid prestimulated); format: cell-based; settings: AHR Antagonism Human IC50 [M]
T1 construct: U87 MG glioblastoma cells (ATCC #HTB-14) endogenously expressing AHR; endogenous in cells; host or cells: U87 MG glioblastoma cells (ATCC #HTB-14)
T1 sequence (P35869 11-848): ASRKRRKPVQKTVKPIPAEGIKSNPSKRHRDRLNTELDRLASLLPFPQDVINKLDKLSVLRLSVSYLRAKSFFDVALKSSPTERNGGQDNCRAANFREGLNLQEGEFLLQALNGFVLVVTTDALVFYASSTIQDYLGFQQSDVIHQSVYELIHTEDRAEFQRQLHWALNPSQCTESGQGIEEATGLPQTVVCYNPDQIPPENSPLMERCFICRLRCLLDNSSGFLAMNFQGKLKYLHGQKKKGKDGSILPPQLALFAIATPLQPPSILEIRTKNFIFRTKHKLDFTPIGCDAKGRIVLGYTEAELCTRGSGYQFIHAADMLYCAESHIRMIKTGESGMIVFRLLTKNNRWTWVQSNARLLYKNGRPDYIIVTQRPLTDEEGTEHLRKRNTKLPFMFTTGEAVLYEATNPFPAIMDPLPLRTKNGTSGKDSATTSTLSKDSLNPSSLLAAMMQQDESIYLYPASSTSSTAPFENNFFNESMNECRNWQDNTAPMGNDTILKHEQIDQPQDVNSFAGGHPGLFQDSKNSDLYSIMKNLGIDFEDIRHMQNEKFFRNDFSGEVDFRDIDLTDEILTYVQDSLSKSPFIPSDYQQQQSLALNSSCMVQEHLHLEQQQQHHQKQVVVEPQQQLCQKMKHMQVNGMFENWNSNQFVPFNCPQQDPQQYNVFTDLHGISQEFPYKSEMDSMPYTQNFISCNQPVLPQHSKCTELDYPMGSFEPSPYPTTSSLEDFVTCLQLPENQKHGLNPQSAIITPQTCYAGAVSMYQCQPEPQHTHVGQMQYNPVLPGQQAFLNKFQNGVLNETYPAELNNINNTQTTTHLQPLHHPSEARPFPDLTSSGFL
Summary of the method: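 U87 MG + DRE-firefly/constitutive-Renilla stable reporters; kynurenic acid prestim; dual-luc read; Renilla = tox; normalized vs pos/neg controls (pos: 150 μM KYNA + 5 μM staurosporine).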

AHR [2] = biological target: T2, AHR (Mus musculus, UniProt P30561); assay: In vitro assay 3: antagonism in mouse cell line (AHR transactivation, firefly luciferase reporter, kynurenic acid prestimulated); format: cell-based
T2 sequence (P30561 1-848 P471L/N533S/M589L): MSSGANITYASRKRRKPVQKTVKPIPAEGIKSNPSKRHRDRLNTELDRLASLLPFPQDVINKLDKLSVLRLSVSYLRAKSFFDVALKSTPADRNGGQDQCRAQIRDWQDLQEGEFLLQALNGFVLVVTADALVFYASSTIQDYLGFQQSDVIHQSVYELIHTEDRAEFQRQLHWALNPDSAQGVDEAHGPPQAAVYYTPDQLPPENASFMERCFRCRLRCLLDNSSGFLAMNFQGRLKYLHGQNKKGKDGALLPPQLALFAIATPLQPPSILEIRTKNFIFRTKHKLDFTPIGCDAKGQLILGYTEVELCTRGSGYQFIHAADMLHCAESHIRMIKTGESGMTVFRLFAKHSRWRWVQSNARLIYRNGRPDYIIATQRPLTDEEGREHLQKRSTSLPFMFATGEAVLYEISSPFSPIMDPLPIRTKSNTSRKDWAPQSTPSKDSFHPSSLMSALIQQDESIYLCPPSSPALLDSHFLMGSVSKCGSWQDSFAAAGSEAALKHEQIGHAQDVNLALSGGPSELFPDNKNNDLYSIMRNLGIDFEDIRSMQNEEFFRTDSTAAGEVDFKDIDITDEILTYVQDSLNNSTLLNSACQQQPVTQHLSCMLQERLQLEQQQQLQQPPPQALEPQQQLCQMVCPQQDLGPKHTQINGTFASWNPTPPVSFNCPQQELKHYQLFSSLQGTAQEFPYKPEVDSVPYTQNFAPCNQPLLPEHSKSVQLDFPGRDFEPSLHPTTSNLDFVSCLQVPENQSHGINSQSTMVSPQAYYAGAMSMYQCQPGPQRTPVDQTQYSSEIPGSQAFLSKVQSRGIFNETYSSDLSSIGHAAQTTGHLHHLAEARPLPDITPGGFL
Summary of the method: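 Mouse cells stably carrying a DRE-driven AHR-inducible firefly luciferase reporter were prestimulated with the endogenous agonist kynurenic acid before compound addition. Luciferase read by SteadyGlo; cells without kynurenic acid served as full-inhibition control, with normalization to positive and negative controls. Repeat tests reported as mean or median.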

[3] = mouse Hepa 1c1c7 cells, 200 μM kynurenic acid, 20 hours, read-out: AHR Antagonism Mouse IC50
[4] = Hepa 1c1c7 cells, 200 μM kynurenic acid, 20 hours, firefly luciferase reporter, read-out: AHR Antagonism Mouse IC50

SMILES	IC50 (AHR [1])	IC50 (AHR [2]; [3])	IC50 (AHR [1]; firefly luciferase reporter)	IC50 (AHR [2]; [4])	IC50 (AHR [2]; read-out: AHR Antagonism Mouse IC50, mouse Hepa 1c1c7 cells, 200 μM kynurenic acid, 20 hours)
Cn1cc(-c2nc3c4c(C(F)(F)F)cccc4nc(N[C@@H]4CNCCNC4=O)n3n2)cn1 [Example 286, (6R)-6-{[2-(1-methyl-1H-pyrazol-4-yl)-10-(trifluoromethyl)[1,2,4]triazolo[1,5-c]quinazolin-5-yl]amino}-1,4-diazepan-5-one]	2.78e-06 M	3350 nM	–	–	–
COc1ccc(-c2nc3c4cc(C)ccc4nc(N[C@@H]4CCCCNC4=O)n3n2)cc1 [Example 241, (3R)-3-{[2-(4-methoxyphenyl)-9-methyl[1,2,4]triazolo[1,5-c]quinazolin-5-yl]amino}azepan-2-one]	1.27e-09 M	1.93 nM	–	–	–
CCn1cc(-c2nc3c4cccc(Cl)c4nc(N[C@@H]4CNCCNC4=O)n3n2)cn1 [Example 957, (6R)-6-{[7-chloro-2-(1-ethyl-1H-pyrazol-4-yl)[1,2,4]triazolo[1,5-c]quinazolin-5-yl]amino}-1,4-diazepan-5-one]	–	–	1.22e-08 M	16.8 nM	–
COc1ccc(-c2nc3c4cccc(N5CCCC5=O)c4nc(N[C@@H]4CCCCNC4=O)n3n2)cc1 [Example 1001, (3R)-3-{[2-(4-methoxyphenyl)-7-(2-oxopyrrolidin-1-yl)[1,2,4]triazolo[1,5-c]quinazolin-5-yl]amino}azepan-2-one]	–	–	3.54e-07 M	5040 nM	–
O=C1NCCC[C@H]1Nc1nc2ccccc2c2nc(-c3ccccc3OC(F)F)nn12 [Example 472, (3R)-3-({2-[2-(difluoromethoxy)phenyl][1,2,4]triazolo[1,5-c]quinazolin-5-yl}amino)piperidin-2-one]	3.72e-08 M	38.1 nM	–	–	–
COc1ccc(-c2nc3c4cccc(C(C)(C)O)c4nc(N[C@@H]4CCCCNC4=O)n3n2)cc1 [Example 859, (3R)-3-{[7-(2-hydroxypropan-2-yl)-2-(4-methoxyphenyl)[1,2,4]triazolo[1,5-c]quinazolin-5-yl]amino}azepan-2-one]	–	–	4.11e-09 M	39.4 nM	–
CC(C)S(=O)(=O)c1cccc2c1nc(N[C@@H]1CCCCNC1=O)n1nc(-c3cnn(C)c3)nc21 [Example 845, (3R)-3-{[2-(1-methyl-1H-pyrazol-4-yl)-7-(propane-2-sulfonyl)[1,2,4]triazolo[1,5-c]quinazolin-5-yl]amino}azepan-2-one]	–	–	6.71e-08 M	247 nM	–
N#Cc1cccc2c1nc(N[C@@H]1CNCCNC1=O)n1nc(-c3cnn(C4CCC4)c3)nc21 [Example 933, 2-(1-cyclobutyl-1H-pyrazol-4-yl)-5-{[(6R)-5-oxo-1,4-diazepan-6-yl]amino}[1,2,4]triazolo[1,5-c]quinazoline-7-carbonitrile]	–	–	7.39e-08 M	138 nM	–
CCNC(=O)[C@@H](CC)Nc1nc2c(Br)cccc2c2nc(-c3ccc(Cl)cc3OC(F)F)nn12 [Example 798, (2R)-2-({7-bromo-2-[4-chloro-2-(difluoromethoxy)phenyl][1,2,4]triazolo[1,5-c]quinazolin-5-yl}amino)-N-ethylbutanamide]	–	–	7.57e-10 M	0.811 nM	–
CCS(=O)(=O)c1cccc2c1nc(N[C@@H]1CCCCNC1=O)n1nc(-c3ccc(OC)cc3)nc21 [Example 844, (3R)-3-{[7-(ethanesulfonyl)-2-(4-methoxyphenyl)[1,2,4]triazolo[1,5-c]quinazolin-5-yl]amino}azepan-2-one]	–	–	1.76e-09 M	10.9 nM	–
COc1ccc(-c2nc3c4ccc(OC)cc4nc(N[C@@H]4CCCCNC4=O)n3n2)cc1 [Example 549, (3R)-3-{[8-methoxy-2-(4-methoxyphenyl)[1,2,4]triazolo[1,5-c]quinazolin-5-yl]amino}azepan-2-one]	7.33e-08 M	17400 nM	–	–	–
Nc1cccc(-c2nc3c4ccccc4nc(N[C@@H]4CCCCNC4=O)n3n2)c1 [Example 621, (3R)-3-{[2-(3-aminophenyl)[1,2,4]triazolo[1,5-c]quinazolin-5-yl]amino}azepan-2-one]	1.02e-09 M	0.964 nM	–	–	–
CCn1cc(-c2nc3c4cccc(SC)c4nc(N[C@@H]4CCCCNC4=O)n3n2)c(C)n1 [Example 772, (3R)-3-{[2-(1-ethyl-3-methyl-1H-pyrazol-4-yl)-7-(methylsulfanyl)[1,2,4]triazolo[1,5-c]quinazolin-5-yl]amino}azepan-2-one]	3.61e-09 M	51.3 nM	–	–	–
COc1ccc(-c2nc3c4cccc(C(C)C)c4nc(N[C@@H]4CCCCNC4=O)n3n2)cc1 [Example 587, (3R)-3-{[2-(4-methoxyphenyl)-7-(propan-2-yl)[1,2,4]triazolo[1,5-c]quinazolin-5-yl]amino}azepan-2-one]	7.7e-09 M	20.6 nM	–	–	–
O=C1NCCCC[C@H]1Nc1nc2cccc(C3CC3)c2c2nc(-c3cccc(F)c3)nn12 [Example 175, (3R)-3-{[10-cyclopropyl-2-(3-fluorophenyl)[1,2,4]triazolo[1,5-c]quinazolin-5-yl]amino}azepan-2-one]	3.24e-08 M	22.3 nM	–	–	–
Cn1cc(-c2nc3c4ccccc4nc(NC4CCCNC4=O)n3n2)cn1 (single isomer, unassigned) [Example 20, 3-{[2-(1-methyl-1H-pyrazol-4-yl)[1,2,4]triazolo[1,5-c]quinazolin-5-yl]amino}piperidin-2-one]	1.24e-06 M	2210 nM	–	–	–
CC[C@@H](Nc1nc2ccccc2c2nc(-c3cccc(OC(F)(F)F)c3)nn12)C(N)=O [Example 314, (2R)-2-({2-[3-(trifluoromethoxy)phenyl][1,2,4]triazolo[1,5-c]quinazolin-5-yl}amino)butanamide]	6.9e-09 M	0.922 nM	–	–	–
O=C1NCCNC[C@H]1Nc1nc2c(Br)cccc2c2nc(-c3ccccc3OC(F)(F)F)nn12 [Example 266, (6R)-6-({7-bromo-2-[2-(trifluoromethoxy)phenyl][1,2,4]triazolo[1,5-c]quinazolin-5-yl}amino)-1,4-diazepan-5-one]	3.29e-09 M	2.17 nM	–	–	–
Cc1c(-c2nc3c4ccccc4nc(N[C@@H]4CCCCNC4=O)n3n2)cnn1C [Example 68, (3R)-3-{[2-(1,5-dimethyl-1H-pyrazol-4-yl)[1,2,4]triazolo[1,5-c]quinazolin-5-yl]amino}azepan-2-one]	1.03e-08 M	–	–	–	8.57 nM
COc1ccc(-c2nc3c4ccccc4nc(N[C@H]4CCNC4=O)n3n2)cc1 [Example 40, (3S)-3-{[2-(4-methoxyphenyl)[1,2,4]triazolo[1,5-c]quinazolin-5-yl]amino}pyrrolidin-2-one]	2.08e-08 M	380 nM	–	–	–
C[C@@H](Nc1nc2ccccc2c2nc(-c3cc(Cl)ccc3OC(F)(F)F)nn12)C(=O)NCCN(C)C [Example 775, N^2-{2-[5-chloro-2-(trifluoromethoxy)phenyl][1,2,4]triazolo[1,5-c]quinazolin-5-yl}-N-[2-(dimethylamino)ethyl]-D-alaninamide]	3.13e-06 M	743 nM	–	–	–

Source: patent US20230113037A1 (Bayer Aktiengesellschaft, priority 2019, published 2023)
